Assay results as given in US12441742B2, “Naphthyridine compounds as inhibitors of KRAS” (Incyte Corporation, priority 2021, dated 2025).
pIC50: −log10 of the molar value.

How the values were obtained:
KRAS G12C [1] = molecular target: T1, KRAS G12C (Homo sapiens, UniProt P01116, G12C); experiment: KRAS_G12C GDP-GTP exchange assay (bodipy-GDP/GppNHp, SOS1); type: biochemical; conditions: bodipy-loaded KRAS G12C, 2 hours pre-incubation, 2 hours exchange; read-out: G12C_exchange (KRAS_G12C exchange assay IC50)
Protocol: The inhibitor potency of the exemplified compounds was determined in a fluorescence based guanine nucleotide exchange assay, which measures the exchange of bodipy-GDP (fluorescently labeled GDP) for GppNHp (Non-hydrolyzable GTP analog) to generate the active state of KRAS in the presence of SOS1 (guanine nucleotide exchange factor). Inhibitors were serially diluted in DMSO and a volume of 0.1 μL was transferred to the wells of a black low volume 384-well plate. 5 μL/well volume of bodipy-loaded KRAS G12C diluted to 5 nM in assay buffer (25 mM Hepes pH 7.5, 50 mM NaCl, 10 mM MgCl2 and 0.01% Brij-35) was added to the plate and pre-incubated with inhibitor for 2 hours at ambient temperature. Appropriate controls (enzyme with no inhibitor or with a G12C inhibitor (AMG-510)) were included on the plate. The exchange was initiated by the addition of a 5 μL/well volume containing 1 mM GppNHp and 300 nM SOS1 in assay buffer. The 10 μL/well reaction concentration of the bodipy-loaded KRAS G12C, GppNHp, and SOS1 were 2.5 nM, 500 uM, and 150 nM, respectively. The reaction plates were incubated at ambient temperature for 2 hours, a time estimated for complete GDP-GTP exchange in the absence of inhibitor. Internal compounds with confirmed binding were used as positive controls in the assay plates. Fluorescence intensities were measured on a PheraStar plate reader instrument (BMG Labtech) with excitation at 485 nm and emission at 520 nm.
Either GraphPad prism or XLfit was used to analyze the data. The IC50 values were derived by fitting the data to a four parameter logistic equation producing a sigmoidal dose-response curve with a variable Hill coefficient. Prism equation: Y=Bottom+(Top−Bottom)/(1+10^((Log IC50−X)*Hill slope)); XLfit equation: Y=(A+((B−A)/(1+((X/C)^D)))) where X is the logarithm of inhibitor concentration and Y is the response.

KRAS G12C [2] = molecular target: T1, KRAS G12C; experiment: KRAS_G12C cellular pERK HTRF assay; type: cell-based; design: host or cells: MIA PaCa-2; conditions: MIA PaCa-2 (KRAS G12C), 4 hours; read-out: G12C_pERK (KRAS_G12C pERK assay IC50)
Protocol: MIA PaCa-2 (KRAS G12C; ATCC® CRL-1420), A427 (KRAS G12D; ATCC® HTB53), HPAF-II (KRAS G12D; ATCC® CRL-1997) and NCI-H838 (KRAS WT; ATCC® CRL-5844) cells are purchased from ATCC and maintained in RPMI 1640 media supplemented with 10% FBS (Gibco/Life Technologies). The cells are plated at 5000 cells per well (8 uL) into Greiner 384-well low volume, flat-bottom, tissue culture treated white plates and incubated overnight at 37° C., 5% CO2. The next morning, test compound stock solutions are diluted in media at 3x the final concentration, and 4 uL are added to the cells. The plate is mixed by gentle rotation for 30 seconds (250 rpm) at room temperature. The cells are incubated with the KRAS G12C and G12D compounds for 4 hours or 2 hours respectively at 37° C., 5% CO2.
4 uL of 4x lysis buffer with blocking reagent (1:25) (Cisbio) are added to each well and plates are rotated gently (300 rpm) for 30 minutes at room temperature. 4 uL per well of Cisbio anti Phospho-ERK 1/2 d2 is mixed with anti Phospho-ERK 1/2 Cryptate (1:1) are added to each well, mixed by rotation and incubated overnight in the dark at room temperature. Plates are read on the Pherastar plate reader at 665 nm and 620 nm wavelengths. IC50 determination is performed by fitting the curve of inhibitor percent inhibition versus the log of the inhibitor concentration using the GraphPad Prism 7 software.

T1 sequence (P01116 1-188 isoform P01116-2 G12C): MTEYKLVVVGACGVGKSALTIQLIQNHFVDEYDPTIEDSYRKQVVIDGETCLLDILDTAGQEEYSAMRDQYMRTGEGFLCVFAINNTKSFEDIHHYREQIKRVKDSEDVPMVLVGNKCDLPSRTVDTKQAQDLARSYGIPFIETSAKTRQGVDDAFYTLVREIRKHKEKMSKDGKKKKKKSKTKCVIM

## C=C(F)C(=O)N1CC[C@H](n2nnc3c(N4CC(N(C)CC)C4)nc4c(F)c(-c5cccc6cccc(C#N)c56)ncc4c32)C[C@H]1CC#N [Example 14, 8-(1-((2S,4S)-2-(cyanomethyl)-1-(2-fluoroacryloyl)piperidin-4-yl)-4-(3-(ethyl(methyl)amino)azetidin-1-yl)-6-fluoro-1H-[1,2,3]triazolo[4,5-c][1,6]naphthyridin-7-yl)-1-naphthonitrile]
KRAS G12C [1]
  pIC50: ≥ 7.00
KRAS G12C [2]
  pIC50: 6.00 to 7.00

## CCN(C)C1CN(c2nc3c(F)c(-c4cccc5cccc(C#N)c45)ncc3c3c2nnn3[C@H]2CCN(C(=O)/C=C/CF)[C@H](CC#N)C2)C1 [Example 15, 8-(1-((2S,4S)-2-(cyanomethyl)-1-((E)-4-fluorobut-2-enoyl)piperidin-4-yl)-4-(3-(ethyl(methyl)amino)azetidin-1-yl)-6-fluoro-1H-[1,2,3]triazolo[4,5-c][1,6]naphthyridin-7-yl)-1-naphthonitrile]
KRAS G12C [1]
  pIC50: ≥ 7.00
KRAS G12C [2]
  pIC50: ≥ 7.00

## CCN(C)C1CN(c2nc3c(F)c(-c4ccc(F)c5cccnc45)ncc3c3c2nnn3[C@H]2CCN(C(=O)/C=C/CF)[C@H](CC#N)C2)C1 [Example 12, 2-((2S,4S)-4-(4-(3-(ethyl(methyl)amino)azetidin-1-yl)-6-fluoro-7-(5-fluoroquinolin-8-yl)-1H-[1,2,3]triazolo[4,5-c][1,6]naphthyridin-1-yl)-1-((E)-4-fluorobut-2-enoyl)piperidin-2-yl)acetonitrile]
KRAS G12C [1]
  pIC50: ≥ 7.00
KRAS G12C [2]
  pIC50: 6.00 to 7.00

## C=C(F)C(=O)N1CC[C@H](n2nnc3c(N4CC(N(C)CC)C4)nc4c(F)c(-c5n[nH]c6cc(C)c(C)cc56)ncc4c32)C[C@H]1CC#N [Example 13, 2-((2S,4S)-4-(7-(5,6-dimethyl-1H-indazol-3-yl)-4-(3-(ethyl(methyl)amino)azetidin-1-yl)-6-fluoro-1H-[1,2,3]triazolo[4,5-c][1,6]naphthyridin-1-yl)-1-(2-fluoroacryloyl)piperidin-2-yl)acetonitrile]
KRAS G12C [1]
  pIC50: ≥ 7.00
